Measured values reported in ChEMBL document CHEMBL5338791, “Discovery of Novel 1,3-Diphenylpyrazine Derivatives as Potent S-Phase Kinase-Associated Protein 2 (Skp2) Inhibitors for the Treatment of Cancer” (J Med Chem, 2023).
Activity calls are given as the source filed them. No cut-off for these calls is given here.

Assays:
[1] = tested on: PC-3; assay: Induction of cell cycle arrest in human PC-3 cells assessed as accumulation of cells at G2 phase at 10 uM incubated for 24 hrs by flow cytometry (reference value: 19.34 %); type: functional
[2] = Toxicity in NOD-SCID mouse model xenografted with human MGC-803 cells assessed as change in kidney histology at 10 to 50 mg/kg, IG administered once every 2 days for 21 days by H and E staining based analysis; type: organism-based; details: in vivo, po, 504 h, dose 10-50 mg/kg, time 21 day
[3] = tested on: PC-3; assay: Induction of cell cycle arrest in human PC-3 cells assessed as accumulation of cells at G1 phase at 10 uM incubated for 48 hrs by flow cytometry (reference value: 56.81 %); type: functional
[4] = target: S-phase kinase-associated protein 2/Cyclin-dependent kinases regulatory subunit 1/S-phase kinase-associated protein 1 (Homo sapiens, UniProt Q13309); assay: Inhibition of GST-tagged Skp2/Skp1 (unknown origin)/His6-tagged Cks1 (unknown origin) interaction preincubated with Skp2/Skp1 for 10 mins followed by Cks1 addition measured after 20 mins by HTRF assay; type: protein assay
[5] = tested on: PC-3; assay: Upregulation of p21 level in human PC-3 cells upto 10 uM by Western blot analysis; type: functional, cell-based; details: time 48.0 hrs, TDE = time-dependent effect
[6] = tested on: PC-3; assay: Induction of apoptosis in human PC-3 cells assessed as nuclear condensation incubated for 48 hrs; type: functional, cell-based; details: dose <= 10.0 µM
[7] = tested on: MGC-803; assay: Antitumor activity against human MGC-803 cells xenografted in NOD-SCID mouse model assessed as p21 accumulation at 10 to 50 mg/kg, IG administered once every 2 days for 21 days by Western blot analysis; type: functional, organism-based; details: dose 10-50 mg/kg, time 21.0 day
[8] = tested on: MGC-803; assay: Induction of cell cycle arrest in human MGC-803 cells assessed as accumulation of cells at S phase at 2.5 uM incubated for 48 hrs by flow cytometry (reference value: 22.72 %); type: functional
[9] = tested on: PC-3; assay: Induction of apoptosis in human PC-3 cells assessed as viable cells at 2.5 uM incubated for 48 hrs by annexin V-FITC/PI staining based flow cytometry (reference value: 98.6 %); type: functional; details: read-out: Activity
[10] = tested on: MGC-803; assay: Induction of cell cycle arrest in human MGC-803 cells assessed as accumulation of cells at G1 phase at 10 uM incubated for 48 hrs by flow cytometry (reference value: 57.09 %); type: functional
[11] = target: S-phase kinase-associated protein 2 (Homo sapiens, UniProt Q13309); assay: Inhibition of Skp2 in human PC-3 cells treated with shRNA 5'-GGACCTATCGAACTCAGTTAT-3' incubated upto 48 hrs by Western blot analysis (reference value: 4.8 +/- 0.5 microM); type: cell-based
[12] = tested on: MGC-803; assay: Induction of apoptosis in human MGC-803 cells assessed as nuclear condensation incubated for 48 hrs; type: functional, cell-based; details: dose <= 10.0 µM
[13] = Toxicity in NOD-SCID mouse model xenografted with human MGC-803 cells assessed as change in spleen histology at 10 to 50 mg/kg, IG administered once every 2 days for 21 days by H and E staining based analysis; type: organism-based; details: in vivo, po, 504 h, dose 10-50 mg/kg, time 21 day
[14] = tested on: MGC-803; assay: Induction of apoptosis in human MGC-803 cells assessed as necrotic cells at 5 uM incubated for 48 hrs by annexin V-FITC/PI staining based flow cytometry (reference value: 0.89 %); type: functional
[15] = tested on: MGC-803; assay: Upregulation of p21 level in human MGC-803 cells at 10 uM incubated upto 48 hrs by Western blot analysis; type: functional, cell-based
[16] = tested on: PC-3; assay: Induction of cell cycle arrest in human PC-3 cells assessed as accumulation of cells at S phase at 2.5 uM incubated for 48 hrs by flow cytometry (reference value: 22.44 %); type: functional
[17] = tested on: MGC-803; assay: Induction of cell cycle arrest in human MGC-803 cells assessed as accumulation of cells at G2 phase at 10 uM incubated for 48 hrs by flow cytometry (reference value: 20.64 %); type: functional
[18] = tested on: PC-3; assay: Induction of cell cycle arrest in human PC-3 cells assessed as accumulation of cells at G2 phase at 10 uM incubated for 12 hrs by flow cytometry (reference value: 19.34 %); type: functional
[19] = tested on: MGC-803; assay: Induction of cell cycle arrest in human MGC-803 cells assessed as accumulation of cells at G2 phase at 10 uM incubated for 12 hrs by flow cytometry (reference value: 20.64 %); type: functional
[20] = tested on: PC-3; assay: Induction of cell cycle arrest in human PC-3 cells assessed as accumulation of cells at S phase at 10 uM incubated for 6 hrs by flow cytometry (reference value: 19.7 %); type: functional
[21] = tested on: PC-3; assay: Induction of cell cycle arrest in human PC-3 cells assessed as accumulation of cells at G1 phase at 10 uM incubated for 36 hrs by flow cytometry (reference value: 56.81 %); type: functional
[22] = tested on: MGC-803; assay: Induction of apoptosis in human MGC-803 cells assessed as viable cells at 10 uM incubated for 48 hrs by annexin V-FITC/PI staining based flow cytometry (reference value: 98 %); type: functional; details: read-out: Activity
[23] = Biodistribution in tumor of NOD-SCID mouse model xenografted with human PC-3 cells at 25 mg/kg, IG measured for 48 hrs by LC-MS/MS analysis; type: ADME, organism-based, Neoplasm; details: in vivo, po
[24] = tested on: PC-3; assay: Induction of cell cycle arrest in human PC-3 cells assessed as accumulation of cells at G1 phase at 10 uM incubated for 12 hrs by flow cytometry (reference value: 56.81 %); type: functional
[25] = tested on: PC-3; assay: Induction of apoptosis in human PC-3 cells assessed as necrotic cells at 2.5 uM incubated for 48 hrs by annexin V-FITC/PI staining based flow cytometry (reference value: 0.14 %); type: functional
[26] = tested on: A549; assay: Antitumor activity against human A549 cells with low Skp2 expression assessed as cell growth inhibition incubated for 72 hrs by MTT assay; type: functional, cell-based; details: A549, 72 h
[27] = tested on: MGC-803; assay: Antitumor activity against human MGC-803 cells xenografted in NOD-SCID mouse model assessed as p27 accumulation at 10 to 50 mg/kg, IG administered once every 2 days for 21 days by Western blot analysis; type: functional, organism-based; details: dose 10-50 mg/kg, time 21.0 day
[28] = tested on: MGC-803; assay: Induction of cell cycle arrest in human MGC-803 cells assessed as accumulation of cells at S phase at 10 uM incubated for 6 hrs by flow cytometry (reference value: 20.41 %); type: functional
[29] = tested on: PC-3; assay: Antitumor activity against human PC-3 cells xenografted in NOD-SCID mouse model assessed as downregulation of ki67 level at 10 to 50 mg/kg, IG administered once every 2 days for 21 days by Western blot analysis; type: functional, organism-based; details: dose 10-50 mg/kg, time 21.0 day
[30] = tested on: PC-3; assay: Induction of cell cycle arrest in human PC-3 cells assessed as accumulation of cells at S phase at 10 uM incubated for 36 hrs by flow cytometry (reference value: 19.7 %); type: functional
[31] = tested on: NCI-H1299; assay: Antitumor activity against human NCI-H1299 cells assessed as cell growth inhibition incubated for 72 hrs by MTT assay; type: functional, cell-based; details: NCI-H1299, 72 h
[32] = Toxicity in NOD-SCID mouse model xenografted with human MGC-803 cells assessed as change in liver histology at 10 to 50 mg/kg, IG administered once every 2 days for 21 days by H and E staining based analysis; type: organism-based; details: in vivo, po, 504 h, dose 10-50 mg/kg, time 21 day
[33] = Metabolic stability in human liver microsome assessed as half life at 20 umol/L preincubated for 5 mins followed by NADPH addition measured upto 60 mins by LC-MS/MS analysis; type: ADME; details: liver microsomes, dose 20 µmol/L, time < 65 min

S-phase kinase-associated protein 2/Cyclin-dependent kinases regulatory subunit 1/S-phase kinase-associated protein 1, sequence (P61024 whole entry): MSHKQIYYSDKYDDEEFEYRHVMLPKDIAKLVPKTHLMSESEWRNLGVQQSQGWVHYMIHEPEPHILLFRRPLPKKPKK
S-phase kinase-associated protein 2/Cyclin-dependent kinases regulatory subunit 1/S-phase kinase-associated protein 1, sequence (Q13309 whole entry): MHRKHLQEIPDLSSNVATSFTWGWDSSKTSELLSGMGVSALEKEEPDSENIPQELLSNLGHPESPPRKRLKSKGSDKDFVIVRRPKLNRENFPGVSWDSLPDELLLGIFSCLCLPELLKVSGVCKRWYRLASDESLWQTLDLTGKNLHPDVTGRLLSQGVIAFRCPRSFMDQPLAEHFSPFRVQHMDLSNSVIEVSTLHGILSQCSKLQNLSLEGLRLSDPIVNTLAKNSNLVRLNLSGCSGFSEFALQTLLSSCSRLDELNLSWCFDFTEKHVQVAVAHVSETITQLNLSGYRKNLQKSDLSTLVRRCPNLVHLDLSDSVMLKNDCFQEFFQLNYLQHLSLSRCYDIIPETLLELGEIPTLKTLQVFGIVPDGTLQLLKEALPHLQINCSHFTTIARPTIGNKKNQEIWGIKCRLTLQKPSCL
S-phase kinase-associated protein 2/Cyclin-dependent kinases regulatory subunit 1/S-phase kinase-associated protein 1, sequence (P63208 whole entry, further chain): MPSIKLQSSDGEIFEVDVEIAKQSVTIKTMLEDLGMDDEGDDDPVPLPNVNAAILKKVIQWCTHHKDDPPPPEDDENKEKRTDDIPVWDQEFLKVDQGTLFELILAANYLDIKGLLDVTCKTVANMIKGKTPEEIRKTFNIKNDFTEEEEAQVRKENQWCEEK
S-phase kinase-associated protein 2, sequence (Q13309 whole entry): as the sequence (Q13309 whole entry) above

- IC50 [4]: 2.8 µM
- IC50 [11]: 38.5 µM
- Drug uptake [23]: Active
- IC50 [26]: 18.2 µM
- IC50 [31]: 7.1 µM
- half-life at 20 µM [33]: 1.1 h
Compound: O=C(CCl)NC1CCN(c2cnc(-c3ccccc3)c(-c3ccccc3)n2)CC1
- Activity [1]: 15.19%
- Activity [2]: Non-Toxic
- Activity [3]: 35.47%
- Activity [5]: Tde
- Activity [6]: Dose-Dependent Effect
- Activity [7]: Active
- Activity [8]: 26.89%
- viability at 2.5 µM [9]: 92.2%
- Activity [10]: 35.53%
- Activity [12]: Dose-Dependent Effect
- Activity [13]: Non-Toxic
- Activity [14]: 1.27%
- Activity [15]: Active
- Activity [16]: 29.96%
- Activity [17]: 21.86%
- Activity [18]: 21.89%
- Activity [19]: 18.63%
- Activity [20]: 28.11%
- Activity [21]: 33.46%
- viability at 10 µM [22]: 66.9%
- Activity [24]: 44.95%
- Activity [25]: 1.86%
- Activity [27]: Active
- Activity [28]: 29.93%
- Activity [29]: Active
- Activity [30]: 45.23%
- Activity [32]: Non-Toxic
